Assay results from patent US9938258B2 (Karyopharm Therapeutics Inc., priority 2012, dated 2018).
Structures can show the parent of a compound that is named as a salt. Where two headings read alike, the source gives them in different places.

Key:
Z138 cells = assay: MTT cell proliferation assay, Z138; assay type: cell-based; settings: Homo sapiens
How it was run: (§1)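 Seeding 5,000-10,000 cells/well, overnight attachment; 8 concs, 1 nM–30 μM. MTT ~4 h, formazan solubilized, OD 490 nm. % inhibition vs negative control, mostly duplicate, mean±SE.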

HEP 3B cells = assay: MTT cell proliferation assay, HEP 3B; assay type: cell-based; settings: Homo sapiens, Hep3B, incubation approximately 64-72 hours
Procedure: (§2) The MTT cell proliferation assay was used to study the cytotoxic properties of the compounds. The assay was performed according to the method described by Roche Molecular Biochemicals, with minor modifications. The assay is based on the cleavage of the tetrazolium salt, MTT, in the presence of an electron-coupling reagent. The water-insoluble formazan salt produced must be solubilized in an additional step. Cells grown in a 96-well tissue culture plate were incubated with the MTT solution for approximately 4 hours. After this incubation period, a water-insoluble formazan dye formed. After solubilization, the formazan dye was quantitated using a scanning multi-well spectrophotometer (ELISA reader). […] The cells were seeded at 5,000-10,000 cells in each well of 96-well plate in 100 μL of fresh culture medium and were allowed to attach overnight. The stock solutions of the compounds were diluted in 100 μL cell culture medium to obtain eight concentrations of each test compound, ranging from 1 nM to 30 μM. […] All optical densities were measured at 490 nm using a Vmax Kinetic Microplate Reader (Molecular Devices). In most cases, the assay was performed in duplicate and the results were presented as a mean percent inhibition to the negative control±SE. The following formula was used to calculate the percent of inhibition: Inhibition (%)=(1-(ODo/OD)) ×100.
(§3) The M24 cell line is derived from human melanoma cells. The U2OS cell line is a human osteosarcoma cell line expressing wild type p53 and Rb, but lacking p16. The MM1S cell line is a multiple myeloma cell line; the parent cell line, MM.1, was established from peripheral blood of a multiple myeloma patient who had become resistant to steroid-based therapy. The RPMI8226 cell line is derived from human B lymphocyte cells. NHDF cells are normal human dermal fibroblast cells. The MRC-5 cell line is derived from normal lung tissue of a fetus. The LN18 cell line is a human malignant glioma cell line. The DU-145 cell line is a human prostate cancer cell line. A549 cells are human adenocarcinomic human alveolar basal epithelial cells. […]

MS751 cells = assay: MTT cell proliferation assay, MS751; assay type: cell-based, human; settings: Homo sapiens
How it was run: as §1

SNU-182 cell line = assay: MTT cell proliferation assay, SNU-182; assay type: cell-based; settings: Homo sapiens, incubation approximately 64-72 hours
Procedure: as §2, with “×100. […]” for “×100.”

Hep G2 cells = assay: MTT cell proliferation assay, Hep G2; assay type: cell-based; settings: Homo sapiens, HepG2, incubation approximately 64-72 hours
Procedure: as §2
The M24 cell line is derived from human melanoma cells. The U2OS cell line is a human osteosarcoma cell line expressing wild type p53 and Rb, but lacking p16. The MM1S cell line is a multiple myeloma cell line; the parent cell line, MM.1, was established from peripheral blood of a multiple myeloma patient who had become resistant to steroid-based therapy. The RPMI8226 cell line is derived from human B lymphocyte cells. NHDF cells are normal human dermal fibroblast cells. The MRC-5 cell line is derived from normal lung tissue of a fetus. The LN18 cell line is a human malignant glioma cell line. The DU-145 cell line is a human prostate cancer cell line. A549 cells are human adenocarcinomic human alveolar basal epithelial cells. The MOLT4 cell line is a human acute lymphoblastic leukemia cell line. The THP1 cell line is a human leukemic monocytic cell line derived from peripheral blood. The OCIAML5 cell line is a human acute myeloid leukemia cell line. The MDA-MB-231 cell line is a human breast adenocarcinoma cell line. The MDA-MB-468 cell line is a human breast carcinoma cell line. HL-60 cells are human promyelocytic leukemia cells. Hep G2 cells are human hepatocellular carcinoma cells. HEP 3B cells are human hepatocellular carcinoma cells. The DLD-1 cell line is a colorectal adenocarcinoma cell line. The HCT-15 cell line is a human colon carcinoma cell line. The Colo-205 cell line is derived from a human adenocarcinoma of the colon. […]

[1] = tested on: PAK4 interactors and downstream proteins; assay: Immunoblots of PAK4 interactors and downstream proteins in U2OS cells; assay type: cell-based, human; settings: 72 hours
Procedure: Immunoblots were used to measure the effects of exemplary compounds on protein steady-state levels and phophorylation of PAK4 interactor and downstream proteins. Specifically, U2OS (osteosarcoma) cells were split and plated on day 1. After overnight attachment to the tissue culture plate, cells were treated with either DMSO (0), 37 nM, 111 nM, 333 nM, 1 μM, or 3 μM Compound 246 for 72 hours. Cells were collected, washed and lysed in RIPA buffer. After obtaining the protein concentration by BCA assay, lysates were boiled in loading buffer and run on SDS-PAGE. The gels were transferred to nitrocellulose membranes and blotted with antibodies raised against phosphor-PAK4, PAK4, phophos-beta-catenin, beta-catenin, GEF-H1, phospho-Akt, Akt, phospho-ERK1/2, ERK1/2, phospho-cofilin, cofilin, phospho-histone H3, histone H3, cyclin D1, Mcl-1, Bcl-2, p21, survivin, caspase 8, caspase 3, PARP, and beta-actin (loading control).
In another experiment, U2OS (osteosarcoma) cells were split and plated on day 1. After overnight attachment to the tissue culture plate, cells were treated with DMSO (Ct), 0.5 μM, or 5 μM of Compound 124, 369, 226, 246, or 907 for 72 hours. Cells were collected, washed and lysed in RIPA buffer. After obtaining the protein concentration by BCA assay, lysates were boiled in loading buffer and run on SDS-PAGE. The gels were transferred to nitrocellulose membranes and blotted with antibodies raised against phophos-beta-catenin, cyclin D1, PAK4, phospho-cofilin, and beta-actin (loading control).

UCH-2 cell line = assay: MTT cell proliferation assay, UCH-2; assay type: cell-based; settings: UCH2, incubation approximately 64-72 hours
Procedure: as §2, with “×100. […]” for “×100.”

3T3 cells = assay: MTT cell proliferation assay, 3T3; assay type: cell-based, mouse; settings: Mus musculus
How it was run: as §1

DLD-1 cell line = assay: MTT cell proliferation assay, DLD-1; assay type: cell-based; settings: Homo sapiens, incubation approximately 64-72 hours
Procedure: as §2, with “×100. […]” for “×100.”

DU-145 cell line = assay: MTT cell proliferation assay, DU-145; assay type: cell-based; settings: Homo sapiens, incubation approximately 64-72 hours
Procedure: as §2, with “×100. […]” for “×100.”

RPMI8226 cell line = assay: MTT cell proliferation assay, RPMI8226; assay type: cell-based; settings: Homo sapiens, RPMI-8226, incubation approximately 64-72 hours
Procedure: as §2, with “×100. […]” for “×100.”

LoVo cell line = assay: MTT cell proliferation assay, LoVo; assay type: cell-based; settings: Homo sapiens, incubation approximately 64-72 hours
Procedure: as §2, with “×100. […]” for “×100.”

MDA-MB-231 cell line = assay: MTT cell proliferation assay, MDA-MB-231; assay type: cell-based; settings: Homo sapiens, incubation approximately 64-72 hours
Procedure: as §2, with “×100. […]” for “×100.”

M24 cell line = assay: MTT cell proliferation assay, M24; assay type: cell-based; settings: Homo sapiens, incubation approximately 64-72 hours
Procedure: as §2, with “×100. […]” for “×100.”

MM1S cell line = assay: MTT cell proliferation assay, MM1S; assay type: cell-based; settings: Homo sapiens, MM1.S, incubation approximately 64-72 hours
Procedure: as §2, §3

HCT-15 cell line = assay: MTT cell proliferation assay, HCT-15; assay type: cell-based; settings: Homo sapiens, incubation approximately 64-72 hours
Procedure: as §2, with “×100. […]” for “×100.”

Colo-205 cell line = assay: MTT cell proliferation assay, Colo-205; assay type: cell-based; settings: Homo sapiens, incubation approximately 64-72 hours
Procedure: as §2, with “×100. […]” for “×100.”

NHDF cells = assay: MTT cell proliferation assay, NHDF; assay type: cell-based; settings: Homo sapiens, incubation approximately 64-72 hours
Procedure: as §2, with “×100. […]” for “×100.”

U2OS cell line = assay: MTT cell proliferation assay, U2OS; assay type: cell-based; settings: Homo sapiens, incubation approximately 64-72 hours
Procedure: as §2, with “×100. […]” for “×100.”

MRC-5 cell line = assay: MTT cell proliferation assay, MRC-5; assay type: cell-based; settings: Homo sapiens, MRC5, incubation approximately 64-72 hours
Procedure: as §2, with “×100. […]” for “×100.”

MDA-MB-468 cell line = assay: MTT cell proliferation assay, MDA-MB-468; assay type: cell-based; settings: Homo sapiens, incubation approximately 64-72 hours
Procedure: as §2, with “×100. […]” for “×100.”

[2] = tested on: MDA-MB-468 (triple negative breast) cancer xenograft; assay: MDA-MB-468 mouse xenograft model; assay type: in vivo, CB-17 SCID mice; settings: 30 mg/kg QDx5 or 15 mg/kg QDx5 PO for 9 weeks; SCID mice with MDA-MB-468 tumors; versus vehicle
Procedure: The oncological impact of Compound 116 was tested using a MDA-MB-468 (triple negative breast) cancer xenograft model in CB-17 SCID mice. MDA-MB-468 (ATCC # HTB-102) breast adenocarcinoma cells were obtained from ATCC. These cells were grown in high glucose DMEM medium supplemented with 10% fetal bovine serum, 1% penicillin and streptomycin, and 2 mM L-glutamine. Cells were sub-cultured by dilution at a ratio of 1:4. MDA-MB-468 cells were harvested by trypsinization and counted using a hemocytometer. Cells were resuspended in PBS at a concentration of 4×10^8 cells per mL. Cells were placed on ice and mixed with an equal volume of Matrigel (BD Biosciences CB-40234). This mixture was kept on ice and injected into the left flank of mice in a volume of 0.2 mL, equivalent to 4×10^7 cells per mouse. When the tumors reached a mean size of between 100 and 200 mm^3, mice were randomly and prospectively divided. Tumor bearing mice were treated with vehicle or Compound 116 on M-F (QDx5/week) for 9 weeks. Compound 116 was administered orally (PO) at initial doses of 15 and 30 mg/kg five times a week. Animals' weights and condition were recorded daily, tumors were measured once every two days with micro-calipers, and tumor volume was calculated as (length×width×width)/2.

HL-60 cells = assay: MTT cell proliferation assay, HL-60; assay type: cell-based; settings: Homo sapiens, incubation approximately 64-72 hours
Procedure: as §2, with “×100. […]” for “×100.”

[3] = Z-138, Z138 cells, eight concentrations 1 nM to 30 μM, incubation approximately 64-72 hours, read-out: MTT Assay IC50, Z138
[4] = MS751, MS751 cells, eight concentrations 1 nM to 30 μM, incubation approximately 64-72 hours, read-out: MTT Assay IC50, MS751
[5] = NIH3T3, 3T3 cells, eight concentrations 1 nM to 30 μM, incubation approximately 64-72 hours, read-out: MTT Assay IC50, 3T3

SMILES	IC50 (HEP 3B cells) [nM]	IC50 (Hep G2 cells) [nM]	PAK4 total protein ([1]; 0.5 μM or 5 μM)	phosphorylation of PAK4 signaling proteins beta-catenin and cofilin ([1]; 0.5 μM or 5 μM)	IC50 (RPMI8226 cell line) [nM]	IC50 (Z138 cells; [3]) [nM]	IC50 (M24 cell line) [nM]	IC50 (MM1S cell line) [nM]	IC50 (MS751 cells; [4]) [nM]	IC50 (NHDF cells) [nM]	IC50 (U2OS cell line) [nM]	IC50 (3T3 cells; [5]) [nM]	other results
Nc1ccc(/C=C/C(=O)NCC2Cc3cc(-c4ccc(C(=O)N5CC(F)(F)C5)cc4)cc(Cl)c3O2)cn1 (stereo not shown) [Compound 226, (E)-3-(6-aminopyridin-3-yl)-N-((7-chloro-5-(4-(3,3-difluoroazetidine-1-carbonyl)phenyl)-2,3-dihydrobenzofuran-2-yl)methyl)acrylamide]	< 100	< 100	decrease	decreases in phosphorylation	–	–	–	–	–	–	–	–	IC50 (Z138 cells; Z-138, Z138 cells, approximately 64-72 hours incubation, read-out: MTT Assay IC50, Z138): < 100 nM; IC50 (MS751 cells; MS751, MS751 cells, approximately 64-72 hours incubation, read-out: MTT Assay IC50, MS751): < 100 nM; IC50 (SNU-182 cell line): < 100 nM; IC50 (UCH-2 cell line): > 30000 nM; IC50 (3T3 cells; NIH3T3, 3T3 cells, approximately 64-72 hours incubation, read-out: MTT Assay IC50, 3T3): 5000 to 30000 nM
CC(O)c1ccc(-c2cc(Cl)c3c(c2)CC(CNC(=O)/C=C/c2cccnc2)O3)s1 (stereo not shown) [Compound 124]	100 to 5000	100 to 5000	decrease	decreases in phosphorylation	100 to 5000	< 100	100 to 5000	< 100	< 100	100 to 5000	< 100	100 to 5000	IC50 (DLD-1 cell line): 100 to 5000 nM; IC50 (DU-145 cell line): 100 to 5000 nM; IC50 (LoVo cell line): 100 to 5000 nM; IC50 (MDA-MB-231 cell line): 100 to 5000 nM; IC50 (HCT-15 cell line): 100 to 5000 nM; IC50 (Colo-205 cell line): 100 to 5000 nM; IC50 (MRC-5 cell line): < 100 nM; IC50 (MDA-MB-468 cell line): 100 to 5000 nM
CC(=O)c1ccc(-c2cc(Cl)c3c(c2)CC(CNC(=O)/C=C/c2ccc(N)nc2)O3)s1 (stereo not shown) [Compound 116, (E)-N-((5-(5-acetylthiophen-2-yl)-7-chloro-2,3-dihydrobenzofuran-2-yl)methyl)-3-(6-aminopyridin-3-yl)acrylamide]	–	–	–	–	–	100 to 5000	–	–	100 to 5000	–	–	5000 to 30000	mean tumor volume [2]: reduced
Nc1ccc(/C=C/C(=O)NCC2Cc3cc(-c4ccc(C(=O)N5CCNCC5)cc4)cc(Cl)c3O2)cn1 (stereo not shown) [Compound 246, (E)-3-(6-aminopyridin-3-yl)-N-((7-chloro-5-(4-(piperazine-1-carbonyl)phenyl)-2,3-dihydrobenzofuran-2-yl)methyl)acrylamide dihydrochloride]	< 100	100 to 5000	decrease	decreases in phosphorylation	100 to 5000	–	100 to 5000	< 100	–	100 to 5000	< 100	–	IC50 (Z138 cells; Z-138, read-out: MTT Assay IC50, Z138): < 100 nM; IC50 (HL-60 cells): 100 to 5000 nM; IC50 (MS751 cells; MS751, read-out: MTT Assay IC50, MS751): < 100 nM; PAK4 total protein ([1]; 37 nM to 3 μM): decrease; cleavage of apoptosis markers caspase 3, caspase 8 and PARP ([1]; 37 nM to 3 μM): increases in cleavage; phosphorylation or total level of PAK4 signaling proteins (Akt, ERK1/2, beta-catenin, cofilin, p21, cyclin D1) ([1]; 37 nM to 3 μM): decrease in phosphorylation or the total level; IC50 (3T3 cells; NIH3T3, read-out: MTT Assay IC50, 3T3): 100 to 5000 nM
